Results published in patent US5102907A, “Novel squalene synthetase inhibitors” (Merck & Co., Inc., priority 1990, dated 1992).
In brackets after ≈: the same amount, converted by molar mass.

Key:
Assay in all cases: antifungal (yeast) sensitivity, inhibitor dilution assay in microtiter format
Conditions in all cases: YNB/G, lowest concentration to prevent growth, 24 to 48 hours, 35° C., read-out: Minimum Inhibitory Concentration
C. tropicalis MY1012 = type: cell-based, Candida tropicalis
Procedure: (§1) The compounds are particularly active towards filamentous fungi and yeasts including Candida albicans and Cryptococcus neoformans. The sensitivity of filamentous fungi and yeast was determined using inhibitor dilution assays in microtiter format. The compounds were dissolved in DMSO at 2 mg/ml and serially diluted in 0.1M phosphate buffer, pH 7.0 in the microtiter dish from 100 to 0.006 μg/ml. A standardized spore suspension for testing the filamentous fungi was prepared by inoculating Antibiotic Medium #3 containing 1.5% agar with spores such that 1.5×10^3 colony forming units were added per well. The microtiter wells were filled with 50 μl of buffer containing compound and 50 μl of inoculated medium.
(§2) The sensitivity of yeasts was determined by inoculating yeast nitrogen base containing 1% dextrose (YNB/G) with aliquots of an overnight yeast culture grown in Yeast Morphology (YM) media at 35° C. and diluting in YNB/G to yield a final concentration of 1.5-7.5×10^3 colony forming units/well. To test the sensitivity of yeast, compound was solubilized in 10 percent aqueous DMSO at 2.56 mg/ml. The compound was diluted serially in YNB/G from 128 to 0.06 μg/ml and further diluted 1:10 in YNB/G. The wells were filled with 150 μl of media containing drug. […]

C. parapsilosis MY1010 = type: cell-based, Candida parapsilosis
Procedure: as §1, §2

Crypt. neoformans MY1051 = type: cell-based, Cryptococcus neoformans
Procedure: as §1, §2

`CC(=O)OC(CCCC12OC(C(=O)O)C(O)(C(=O)O)C(C(=O)O)(O1)C(OC(=O)CCC=CC(C)CCCc1ccccc1)C2O)C(C)Cc1ccccc1` (stereo not drawn) [Compound A] was tested, and the MIC (C. tropicalis MY1012) was 8 µg/mL (≈ 10.6 µM), the MIC (C. parapsilosis MY1010) was 8 µg/mL (≈ 10.6 µM) and the MIC (Crypt. neoformans MY1051) was 1 µg/mL (≈ 1.32 µM).
